Source: PMC4595849, “Rational Design of Benzylidenehydrazinyl-Substituted Thiazole Derivatives as Potent Inhibitors of Human Dihydroorotate Dehydrogenase with in Vivo Anti-arthritic Activity” (Scientific Reports, 2015)
“And” between values parts separate entries of the source, which are not always exact repeats. Equal entries are not always repeated. Where two headings read alike, the source gives them in different places.

Assays:
[1] = biological target: T1, hDHODH (Met30-Arg396) (Homo sapiens, UniProt Q02127); parameters: method as in PMID 22984987; settings: from earlier virtual screen; cited from earlier work
T1 construct: hDHODH (Met30-Arg396) was expressed and purified in the same manner as described in our recently published work; made in house

[2] = biological target: T1, hDHODH (Met30-Arg396); assay: hDHODH enzyme inhibition, DCIP assay; assay type: biochemical; settings: for LLE: LLE = pIC50 − clogP; for IC50: hDHODH, mean ± SD of three independent experiments, IC50 measured if inhibition rate at 10 μM was larger than 50%; for fold decrease in potency compared with 19: hDHODH IC50 relative to 19
Source text: The plasmid coding for human DHODH was kindly provided by Prof. Jon Clardy (Harvard Medical School)[7]. hDHODH (Met30-Arg396) was expressed and purified in the same manner as described in our recently published work[38]. We determined the effect of benzylidenehydrazinyl-substituted thiazole derivatives to inhibit hDHODH by using a DCIP assay method.

[3] = single dose pharmacokinetic study in rats (IV and PO); settings: male, Sprague-Dawley, rat, plasma, 1 mg/kg
Protocol: (§1) Male Sprague-Dawley rats were raised according to the Guide for the Care and Use of Laboratory Animals. […] Heparin sodium was applied as the anticoagulant of the blood samples. Based on the LC/MS/MS quantitative data, pharmacokinetic parameters were analyzed using WinNonlin5.2 with noncompartment model.

[4] = in vivo; settings: male, Sprague-Dawley, rat, po, 10 mg/kg
Protocol: as §1

[5] = test system: Wistar rats with collagen-induced arthritis (CIA); assay: collagen-induced arthritis (CIA) rat efficacy study; assay type: in vivo; settings: for arthritis score: day 28, maximum score 8; for influence on body weight: i.p. daily for 28 days, versus model group
Protocol: Compound 19 and methotrexate were injected intraperitoneally once per day for 28 days into the Wistar rats with collagen-induced arthritis (CIA). The swelling scores of the arthritis and morphological observations of the rats’ joint tissues were employed to examine the anti-arthritic effect of compound 19 (Fig. 5). With the onset of arthritis, the swelling scores were an indication of the disease states. The maximum score was 8, which is the sum of the scores from both hind paws of each rat and indicates a severe arthritis state. During the experiment, the control rats had normal eating patterns, shiny hair and continuously increasing body weight.
Adult male Wistar rats (120–140 g) were purchased from Shanghai SLRC Laboratory animal company and housed in standard pathogen-free cages. The environment was climate-controlled (20–25 °C, 50–60% relative humidity) with a 12-hour light and 12-hour dark cycle as described previously. Sterilized food and water were provided naturally. All procedures involving animals conform to the Chinese government guidelines for animal experiments, and were conducted with approval of the Institutional Animal Care and Use Committee of East China University of Science & Technology. Bovine type II collagen (CII, Chondrex, USA) was emulsified in the same manner as that conducted previously to get the CIA model. Specifically, 49 rats were randomly assigned into five groups: normal control (solvent, i.p., n = 6), CIA model (solvent, i.p., n = 11), Methotrexate-treated (0.3 mg/kg, i.p., n = 10), compound 19-treated (5 mg/kg, i.p., n = 11) and compound 19-treated (30 mg/kg, i.p., n = 11) groups. Methotrexate, reported to has a therapeutic effect on rheumatoid arthritis, was used as the positive control in this study. The main workflows of this experiment were consistent with that reported recently. During the 28 days of the experiment, compound 19 (5 mg/kg and 30 mg/kg) and Methotrexate (0.3 mg/kg) were injected intraperitoneally once every day. At the same time, the normal control group and model group were administered the same amount of solution. The solvent of 19 was made up of 5% DMSO, 45% saline and 50% PEG400.
In this study, the clinical-mimic arthritis was observed and the severity was assessed by the same criteria as that applied in reference 65: 0, normal, without any swelling; 1, mild swelling; 2, swelling; 3, significant swelling; 4, severe swelling. The maximum score was 8, which was the sum of the scores from both hind paws of each rat. When arthritic signs appeared, the incidence and severity of the arthritis in rats with different treatments were evaluated via arthritis scores recorded every 2 days under blinded conditions. Measurement of body weight was taken every 3 days. All Wistar rats were killed after 28 day’s trails. Pathological detections against the whole knee joints of the rats were conducted using the same method as described previously. Mean ± standard deviation […] was applied to present the data in this study. SPSS was used to evaluate the statistical significance of differences among the groups. P ≤ 0.05 was the threshold to be statistically significant.

[6] = parameters: method as in PMID 16645972; settings: in patients; cited from earlier work

T1 sequence (Q02127 29-395): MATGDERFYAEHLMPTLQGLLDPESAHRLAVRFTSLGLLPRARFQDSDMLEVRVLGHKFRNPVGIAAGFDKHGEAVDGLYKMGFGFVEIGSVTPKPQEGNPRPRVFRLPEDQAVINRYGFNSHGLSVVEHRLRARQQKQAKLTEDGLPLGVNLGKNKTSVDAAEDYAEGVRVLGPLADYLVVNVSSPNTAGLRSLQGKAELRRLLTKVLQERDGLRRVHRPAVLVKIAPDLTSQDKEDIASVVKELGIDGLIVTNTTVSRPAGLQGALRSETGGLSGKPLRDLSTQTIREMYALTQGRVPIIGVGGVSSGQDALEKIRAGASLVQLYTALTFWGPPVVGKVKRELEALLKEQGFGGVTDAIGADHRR

| Structure (SMILES) | LLE [2] | IC50 [2] | inhibition of hDHODH (in words) [2] | also measured |
| --- | --- | --- | --- | --- |
| O=Cc1ccccc1/C=N/Nc1nc(-c2ccccc2)cs1 [Compound 7] | 2.92 | 0.365 ± 0.0006 µM |  | IC50 [1]: 0.365 µM |
| Oc1ccccc1/C=N/Nc1nc(-c2ccccc2)cs1 [Compound 8] | <0.17 | > 10 µM |  |  |
| Oc1c(Cl)cc(Cl)cc1/C=N/Nc1nc(-c2ccccc2)cs1 [Compound 9] | <−1.58 | > 10 µM |  |  |
| Oc1c(Cl)cc(Cl)cc1/C=N/Nc1nc(-c2ccc(Cl)cc2Cl)cs1 [Compound 10] | <−2.53 | > 10 µM |  |  |
| C/C(=N\Nc1nc(-c2ccc(Br)cc2)cs1)c1ccccc1O [Compound 11] | <−0.81 | > 10 µM |  |  |
| Brc1ccc(-c2csc(N/N=C/c3ccccc3)n2)cc1 [Compound 12] | <−0.42 | > 10 µM |  |  |
| Brc1ccc(-c2csc(N/N=C/c3ccco3)n2)cc1 [Compound 13] | <0 | > 10 µM |  |  |
| Cc1sc(N/N=C/c2cc([N+](=O)[O-])ccc2O)nc1-c1ccccc1 [Compound 14] | <−0.48 | > 10 µM |  |  |
| Cc1sc(N/N=C/c2ccccc2O)nc1-c1ccccc1 [Compound 15, (E)-2-((2-(5-methyl-4-phenylthiazol-2-yl)hydrazono)methyl)phenol] | 0.48 | 2.437 ± 0.0229 µM | moderate inhibition |  |
| CC(C)c1ccc(-c2csc(N/N=C/c3ccccc3O)n2)cc1 [Compound 16, (E)-2-((2-(4-(4-isopropylphenyl)thiazol-2-yl)hydrazono)methyl)phenol] | <−1.23 | > 10 µM |  |  |
| Oc1ccccc1/C=N/Nc1nc(-c2ccc(Cl)c(Cl)c2)cs1 [Compound 17, (E)-2-((2-(4-(3,4-dichlorophenyl)thiazol-2-yl)hydrazono)methyl)phenol] | <−1.03 | > 10 µM |  |  |
| Oc1ccccc1/C=N/Nc1nc(-c2ccccc2Cl)cs1 [Compound 18, (E)-2-((2-(4-(2-chlorophenyl)thiazol-2-yl)hydrazono)methyl)phenol] | 0.76 | 1.39 ± 0.038 µM | moderate inhibition |  |
| O=C(O)c1ccccc1/C=N/Nc1nc(-c2ccccc2Cl)cs1 [Compound 19, (E)-2-((2-(4-(2-chlorophenyl)thiazol-2-yl)hydrazono)methyl)benzoic acid] | 3.59 | 0.032 µM and 0.0322 µM | IC50 values in the double-digit nanomolar range | half-life [3]: 9.69 ± 3.15 h; Cmax [4]: 5310 ± 1910 ng/mL; arthritis score ([5]; 5 mg/kg i.p. daily): around 5; arthritis score ([5]; 30 mg/kg i.p. daily): ~3; anti-arthritic effect (in words) ([5]; 5 and 30 mg/kg i.p. daily for 28 days): significant dose-dependent anti-arthritic effect; histological changes in joint tissues (H&E) ([5]; both dosages, compared to CIA rats): evidently alleviated; influence on body weight [5]: no obvious influence on increase in body weight; fold increase in potency compared to 18 ([2]; hDHODH IC50 relative to hydroxy-substituted derivative 18): 43 fold |
| O=C(O)c1cccc(/C=N/Nc2nc(-c3ccccc3Cl)cs2)c1 [Compound 20, (E)-3-((2-(4-(2-chlorophenyl)thiazol-2-yl)hydrazono)methyl)benzoic acid] | <0.34 | > 10 µM | loss of activity |  |
| O=C(O)c1ccc(/C=N/Nc2nc(-c3ccccc3Cl)cs2)cc1 [Compound 21, (E)-4-((2-(4-(2-chlorophenyl)thiazol-2-yl)hydrazono)methyl)benzoic acid] | <0.28 | > 10 µM | loss of activity |  |
| COC(=O)c1ccccc1/C=N/Nc1nc(-c2ccccc2Cl)cs1 [Compound 22, (E)-methyl 2-((2-(4-(2-chlorophenyl)thiazol-2-yl)hydrazono)methyl)benzoate] | 1.02 | 3.27 ± 0.0678 µM |  | fold decrease in potency compared with 19 [2]: 101 fold |
| CCOC(=O)c1ccccc1/C=N/Nc1nc(-c2ccccc2Cl)cs1 [Compound 23, (E)-ethyl 2-((2-(4-(2-chlorophenyl)thiazol-2-yl)hydrazono)methyl)benzoate] | 0.75 | 1.87 ± 0.03 µM |  | fold decrease in potency compared with 19 [2]: 58 fold |
| O=C(O)c1c(F)cccc1/C=N/Nc1nc(-c2ccccc2Cl)cs1 [Compound 24, (E)-2-((2-(4-(2-chlorophenyl)thiazol-2-yl)hydrazono)methyl)-6-fluorobenzoic acid] | 2.66 | 0.234 ± 0.0068 µM |  | fold decrease in potency compared with 19 [2]: 7 fold |
| Nc1cccc(C(=O)O)c1/C=N/Nc1nc(-c2ccccc2Cl)cs1 [Compound 25, (E)-3-amino-2-((2-(4-(2-chlorophenyl)thiazol-2-yl)hydrazono)methyl)benzoic acid] | <1.22 | > 10 µM | sharp decrease in inhibitory activity |  |
| O=C(O)c1ccccc1/C=N/Nc1nc(-c2ccccc2)cs1 [Compound 26, (E)-2-((2-(4-phenylthiazol-2-yl)hydrazono)methyl)benzoic acid] | 3.12 | 0.183 ± 0.0031 µM | slight decrease in activity |  |
| COc1cccc(-c2csc(N/N=C/c3ccccc3C(=O)O)n2)c1 [Compound 27, (E)-2-((2-(4-(3-methoxyphenyl)thiazol-2-yl)hydrazono)methyl)benzoic acid] | 3.52 | 0.175 ± 0.0018 µM |  |  |
| NC(=O)c1cccc(-c2csc(N/N=C/c3ccccc3C(=O)O)n2)c1 [Compound 28, (E)-2-((2-(4-(3-carbamoylphenyl)thiazol-2-yl)hydrazono)methyl)benzoic acid] | 4.38 | 1.175 ± 0.0085 µM | sharp decrease in potency |  |
| Cc1ccc(-c2csc(N/N=C/c3ccccc3C(=O)O)n2)cc1 [Compound 29, (E)-2-((2-(4-(p-tolyl)thiazol-2-yl)hydrazono)methyl)benzoic acid] | 2.64 | 0.155 ± 0.0068 µM |  |  |
| O=C(O)c1ccccc1/C=N/Nc1nc(-c2cc(Cl)ccc2Cl)cs1 [Compound 30, (E)-2-((2-(4-(2,5-dichlorophenyl)thiazol-2-yl)hydrazono)methyl)benzoic acid] | 2.88 | 0.043 µM and 0.0431 µM | IC50 values in the double-digit nanomolar range |  |
| O=C(O)c1ccccc1/C=N/Nc1nc(-c2ccc3ccccc3c2)cs1 [Compound 31, (E)-2-((2-(4-(naphthalen-2-yl)thiazol-2-yl)hydrazono)methyl)benzoic acid] | 1.43 | 0.573 ± 0.0216 µM | moderate inhibitory activity |  |
| O=C(O)c1ccccc1/C=N/Nc1nc(-c2ccc(-c3ccccc3)cc2)cs1 [Compound 32, (E)-2-((2-(4-([1,1′-biphenyl]-4-yl)thiazol-2-yl)hydrazono)methyl)benzoic acid] | <−0.04 | > 10 µM | loss of activity |  |
| Cc1oncc1C(=O)Nc1ccc(C(F)(F)F)cc1 [Leflunomide, leflunomide] |  |  |  | half-life [6]: approximately two |
| CN(Cc1cnc2nc(N)nc(N)c2n1)c1ccc(C(=O)N[C@@H](CCC(=O)O)C(=O)O)cc1 [methotrexate, reference compound] |  |  |  | influence on body weight [5]: no obvious influence on increase in body weight |
